Consider 2 compounds from patent publication US12516034B2, “Process for preparing high-density quercetin” (TRADICHEM INDUSTRIAL SERVICES, S.L., priority 2022, dated 2026).

Common to all, as to format: physicochemical
The nature of series [1]: Bulk density (PT-SV100 Scott Volumeter). The conditions noted are these: after roller compaction vs starting non-compacted quercetin. The text has this: The bulk density, also called apparent density, can be defined as the ratio of the mass to the volume of an untapped powder sample, as “poured”. The bulk density is given in grams per millilitre (g/ml) and is typically calculated by “pouring” a known mass of powder into a graduated cylinder. Bulk density and tapped density can be measured according to the method disclosed in the European Pharmacopoeia section 2.9.34 (Bulk density and tapped density of powders), for example, the bulk density may be measured using the PT-SV100 Scott Volumeter and the tapped density may be measured using the PT-TD200 Tap Density Tester (Pharma Test Apparatebau AG, Germany). The bulk density was measured using a PT-SV100 Scott Volumeter (Pharma Test) and the tapped density was measured using a PT-TD200 Tap Density Tester (Pharma Test).

The nature of series [2]: Tapped density (PT-TD200 Tap Density Tester). As to conditions: after mechanical tapping. The procedure: On the other hand, tapped density, also called compacted density, of a powder is the ratio of the mass of the powder to the volume occupied by the powder after it has been tapped for a defined period of time. Tapped density is measured by first gently introducing a known sample mass into a graduated cylinder and carefully levelling the powder without compacting it. The cylinder is then mechanically tapped by raising the cylinder and allowing it to drop under its own weight using a suitable mechanical tapped density tester that provides a suitable fixed drop distance and nominal drop rate Bulk density and tapped density can be measured according to the method disclosed in the European Pharmacopoeia section 2.9.34 (Bulk density and tapped density of powders), for example, the bulk density may be measured using the PT-SV100 Scott Volumeter and the tapped density may be measured using the PT-TD200 Tap Density Tester (Pharma Test Apparatebau AG, Germany). The bulk density was measured using a PT-SV100 Scott Volumeter (Pharma Test) and the tapped density was measured using a PT-TD200 Tap Density Tester (Pharma Test).

Series [3] is described as follows: Carr index (compressibility index), powder flowability. The conditions noted are these: for Compressibility (Carr Index): calculated from bulk and tapped density; for Flowability (type of flow according to Table 1): classification by Carr index / Hausner ratio. Here is the method:
The Carr index, also called Carr's index or compressibility index, is calculated according to the following formula: Free flowing powders have smaller values of the Carr index than poor flowing powders. In general, a Carr index greater than 25 is considered to be an indication of poor flowability, and below 15, of good flowability. The relationship between Carr index and/or Hausner ratio with powder flowability is well recognized in the art, for example, as disclosed by M. E. Aulton, in “Powder flow”, chapter 12 of the well-recognized reference book in pharmaceutical technology “Aulton's Pharmaceutics. The design and manufacture of medicines”, Fifth Edition 2018, M. E. Aulton and K. M. G. Taylor, Editors, Elsevier Ltd, as summarized in Table 1: Carr index was calculated from the bulk and tapped density measured values, using the following formula: […]

Series [4] is described as follows: Hausner ratio, powder flowability. As to conditions: calculated from bulk and tapped density. Here is the method: Hausner ratio is also predictive of powder flow, and is calculated according to the following formula: In this case, a Hausner ratio greater than 1.34 is generally considered to be an indication of poor flowability. The relationship between Carr index and/or Hausner ratio with powder flowability is well recognized in the art, for example, as disclosed by M. E. Aulton, in “Powder flow”, chapter 12 of the well-recognized reference book in pharmaceutical technology “Aulton's Pharmaceutics. The design and manufacture of medicines”, Fifth Edition 2018, M. E. Aulton and K. M. G. Taylor, Editors, Elsevier Ltd, as summarized in Table 1: Hausner ratio was also calculated using bulk and tapped density values, according to the following formula: […]

A short description of another series: Angle of repose. As to conditions: tan^-1 (height/radius) of cone after pouring. The text has this:
The “angle of repose” is another parameter for indirectly quantifying powder flowability. It is the angle at which a material will rest on a stationary heap, specifically, is the angle formed by the heap slope and the horizontal plane. It may be calculated by different methods, commonly, just pouring the material on a flat surface. It also can be calculated as “drained angle of repose”, as the angle measured on the internal conical face of a material which has been formed when drained from an orifice of a flat-bottomed container to the horizontal. A dynamic angle of repose can also be used, which is the angle to the horizontal of the free surface formed in a relatively slowly rotating drum (Aulton, op. cit., pg. 197). In this case, the lower the value of the angle of repose, the higher the flowability of the material. It is generally considered that an angle of repose higher than 45 correlates with poor flowability, whereas an angle of repose under 30 correlates with excellent flowability. The angle of repose was determined by measuring the radius and the height of the cone formed after pouring the powder, using the formula tan^−1 (height/radius).

Series [5] in a line: Solubility compared to non-compacted quercetin. As to conditions: compared to standard. The text has this:
It is advantageous, as the poor solubility of quercetin is one of the drawbacks of this substance, as it impairs its biological availability and, consequently, its therapeutic activity.

On to `O=c1c(O)c(-c2ccc(O)c(O)c2)oc2cc(O)cc(O)c12` [Compacted quercetin, 3,3′,4′,5,7-pentahydroxyflavone], for which the “Increase of bulk density” value in series [1] is listed as “about 200%”. Moreover, the Tapped density in series [2] came out at 0.71 g/mL. Also, in series [3], the “Compressibility (Carr Index)” value was 8.45 and the “Flowability (type of flow according to Table 1)” value is on record as “excellent”. For the same compound, the Hausner ratio in series [4] is given as 1.09. Further, the Angle of repose in the series “Angle of repose” is recorded as 25-30°. Also, the Solubility entry in series [5] is “improved”.
`O=c1c(O)c(-c2ccc(O)c(O)c2)oc2cc(O)cc(O)c12` [Non-compacted quercetin, 3,3′,4′,5,7-pentahydroxyflavone, reference compound] had a Tapped density in series [2] of 0.44 g/mL. In series [3], the “Compressibility (Carr Index)” value was 52.27 and the “Flowability (type of flow according to Table 1)” value is on record as “very, very poor”. Moreover, the Hausner ratio in series [4] is listed as 2.10. In the series “Angle of repose”, the Angle of repose was greater than 45°.
